Test results from patent publication US20260240878A1, “PTP1B/TC-PTP DUAL INHIBITORS AND PROTEIN DEGRADERS” (Purdue Research Foundation, priority 2023, published 2026).

Columns and labels:
PTP1B = biological target: T1, PTP1B (Homo sapiens, UniProt P18031); experiment: FP-based library screening (fluorescence polarization displacement); format: binding
T1 sequence (P18031 1-435): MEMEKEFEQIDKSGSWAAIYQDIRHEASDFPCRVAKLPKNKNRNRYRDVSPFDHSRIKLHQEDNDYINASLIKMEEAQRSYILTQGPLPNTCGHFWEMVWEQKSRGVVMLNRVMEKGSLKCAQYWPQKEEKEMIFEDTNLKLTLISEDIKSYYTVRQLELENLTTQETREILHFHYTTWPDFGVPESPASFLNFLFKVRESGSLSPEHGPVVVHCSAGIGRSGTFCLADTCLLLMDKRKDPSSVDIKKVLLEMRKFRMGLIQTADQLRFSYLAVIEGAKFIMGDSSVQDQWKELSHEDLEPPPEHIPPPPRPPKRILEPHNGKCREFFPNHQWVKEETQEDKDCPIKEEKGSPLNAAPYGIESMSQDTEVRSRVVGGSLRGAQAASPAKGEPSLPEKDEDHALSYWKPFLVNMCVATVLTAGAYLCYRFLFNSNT
Protocol: (§1) The library screening assay was carried out on a Tecan Genesis workstation with a 96-channel tip block with fixed tips. Before the screening, the library compounds were diluted from the DMSO stock solution into 3,3-dimethylglutarate buffer (50 mM 3,3-dimethylglutarate buffer, pH 7.0, containing 1 mM EDTA with an ionic strength of 0.15 M adjusted by addition of NaCl), resulting in a set of six daughter plates with an ~75 nM concentration of each compound in each well. In the first screen, PTP1B or TCPTP (2 μM in 50 mM 3,3-dimethylglutarate buffer, 50 μL, pH 7.0, containing 1 mM EDTA with an ionic strength of 0.15 M adjusted by addition of NaCl) was dispensed into each well of a 384-well plate, and then 2 μL of the fluorescein-tagged library compounds were transferred from four 96-well intermediate plates to the 384-well plate (final compound concentration ~3 nM). The fluorescence polarization values (A1) were recorded on an Envision 2021 Multilabel Microplate Reader (Perkin-Elmer). In the second screen, 50 μL of a mixture of 2 μM PTP1B or TCPTP and 500 μM Fmoc-F2Pmp-OH (as a competitive ligand) in 3,3-dimethylglutarate buffer (50 mM 3,3-dimethylglutarate buffer, pH 7.0, containing 1 mM EDTA with an ionic strength of 0.15 M adjusted by addition of NaCl) were dispensed into each well of another 384-well plate, followed by the addition of 2 μL of the fluorescein tagged library compounds (75 nM in 3,3-dimethylglutarate buffer, pH 7.0, containing 1 mM EDTA with an ionic strength of 0.15 M adjusted by addition of NaCl). The fluorescence polarization values (A2) were again measured. A displacement percentage was calculated for each library compound as (A1−A2)/(A1−A0)×100%, where A1 and A2 are the fluorescence anisotropy values of each sample as described, and A0 is the fluorescence anisotropy of free library compounds in 3,3-dimethylglutarate buffer. To simplify the calculation, A0 was set to 30. The binding affinity ranking of each compound was determined on the displacement percentage: the […] the displacement percentage, the higher the binding affinity.
(§2) The library was screened using the same protocol as the library 1, except that 0.5 μM PTP1BB/TC-PTP and 1.5 mM competitive ligand Fmoc-F2Pmp-OH were used.
(§3) The library was screened using the same protocol as the library 1, except that 0.5 μM PTP1B/TC-PTP and 5 μM ((4-((S)-2-((S)-2-acetamido-3-phenylpropanamido)-3-(((S)-1-amino-6-(3-bromo-4-methylbenzamido)-1-oxohexan-2-yl)amino)-3-oxopropyl)phenyl)difluoromethyl)phosphonic acid (as a competitor) were used.

TC-PTP = biological target: T2, TC-PTP (Homo sapiens, UniProt P17706); experiment: as above; format: binding
T2 sequence (P17706 1-415): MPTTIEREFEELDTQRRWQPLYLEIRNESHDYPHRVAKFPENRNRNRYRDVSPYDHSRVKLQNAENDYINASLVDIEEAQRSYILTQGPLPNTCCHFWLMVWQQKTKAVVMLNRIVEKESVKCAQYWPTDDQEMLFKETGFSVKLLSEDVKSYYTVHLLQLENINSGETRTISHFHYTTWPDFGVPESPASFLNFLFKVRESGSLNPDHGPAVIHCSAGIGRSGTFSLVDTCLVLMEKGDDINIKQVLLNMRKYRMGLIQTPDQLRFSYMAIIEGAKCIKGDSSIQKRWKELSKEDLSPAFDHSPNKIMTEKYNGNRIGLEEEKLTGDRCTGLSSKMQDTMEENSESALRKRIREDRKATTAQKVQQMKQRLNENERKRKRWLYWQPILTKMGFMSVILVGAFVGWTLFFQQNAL
Protocol: as §1, §2, §3

[1] = library 2, 0.5 μM enzyme, 1.5 mM Fmoc-F2Pmp-OH
[2] = library 3, 0.5 μM enzyme, 5 μM Example 6 compound as competitor
[3] = library 1, 2 μM PTP1B, 500 μM Fmoc-F2Pmp-OH competitive ligand, smaller = higher affinity
[4] = library 1, 2 μM TCPTP, 500 μM Fmoc-F2Pmp-OH competitive ligand, smaller = higher affinity

| Compound | Displacement %, PTP1B (PTP1B; [3]) [%] | Displacement %, TC-PTP (TC-PTP; [4]) [%] | Displacement %, PTP1B (PTP1B; [1]) [%] | Displacement %, TC-PTP (TC-PTP; [1]) [%] | Displacement %, PTP1B (PTP1B; [2]) [%] | Displacement %, TC-PTP (TC-PTP; [2]) [%] |
| --- | --- | --- | --- | --- | --- | --- |
| (S)-2-acetamido-3-(4- fluorophenyl)propanoic acid |  |  | 45 | 45 |  |  |
| O=C(O)Cc1ccc(Br)cc1 [2-(4-bromophenyl)acetic acid] |  |  |  |  | 77 | 77 |
| 2-(3-fluoro-4- hydroxyphenyl)acetic acid |  |  |  |  | 72 | 75 |
| O=C(O)Cc1ccc(O)cc1 [2-(4-hydroxyphenyl)acetic acid] |  |  |  |  | 66 | 62 |
| CCOC(=O)N[C@@H](Cc1ccccc1)C(=O)O [(ethoxycarbonyl)-L- phenylalanine] |  |  | 44 | 41 |  |  |
| 2-(4-chloro-2- methylphenoxy)acetic acid |  |  | 57 | 55 |  |  |

The next lines start with results.

| Displacement %, PTP1B (PTP1B; [3]) [%] | Displacement %, TC-PTP (TC-PTP; [4]) [%] | Compound | Displacement %, PTP1B (PTP1B; [1]) [%] | Displacement %, TC-PTP (TC-PTP; [1]) [%] | Displacement %, PTP1B (PTP1B; [2]) [%] | Displacement %, TC-PTP (TC-PTP; [2]) [%] |
| --- | --- | --- | --- | --- | --- | --- |
| 44 | 46 | O=C(O)c1ccc(F)cc1 [4-fluorobenzoic acid] |  |  |  |  |
| 57 | 54 | COc1ccc(C(=O)O)cc1F [3-fluoro-4-methoxybenzoic acid] |  |  |  |  |
| 45 | 51 | O=C(O)c1ccsc1 [3-thiophenecarboxylic acid] |  |  |  |  |
